US20140272949A1, “Methods for Fully Segregating Recombinant Marine Cyanobacteria” (ALGENOL BIOFUELS INC., priority 2013, published 2014)

Tested on: PCC7002:pAB125 clones
Assay: Growth on low salt spectinomycin segregation plates
Format: cell-based, Synechococcus sp. strain PCC 7002
Procedure: 1 mL of the culture was washed once in BG-11 (2.500×g, 10 min spin) and streaked for single colonies on low salt media (BG-11+vB12) plates with various spectinomycin concentrations (sp15, 30, 60, 120, 240, 300, 360, and 500 μg/mL). These segregation plates were incubated at room temperature with low light overnight and then at 37° C. with continuous light or with a 12 h/12 h light/dark cycle for approximately 2 weeks.

CN[C@@H]1[C@H](O)[C@H](NC)[C@H]2O[C@@]3(O)C(=O)C[C@@H](C)O[C@H]3O[C@@H]2[C@H]1O [spectinomycin]
growth on low salt plates (240 and 300 mg/L of spectinomycin, BG-11+vB12, about 2 weeks): single colonies formed
growth on low salt plates (higher spectinomycin concentrations (360, 500 μg/mL), BG-11+vB12): No colonies were found
growth on low salt plates (spectinomycin at 15 to 120 mg/L, BG-11+vB12, about 2 weeks): abundant growth
